Experimental data from patent US20230263758A1, “COMPOSITIONS OF EDTA HAVING ACTIVITY AGAINST PLANKTONIC AND BIOFILM CELLS OF CLINICALLY RELEVANT PATHOGENS” (SterileCare Inc., priority 2022, published 2023).
Structures can show the parent of a compound that is named as a salt.

What was measured:
[1] = tested on: Staphylococcus aureus ON89; assay: Checkerboard, FMCI; assay type: cell-based; conditions: S. aureus ON89
Experimental: (§1) An assay was made using a minimum inhibitory concentration (MIC) and minimum bactericidal concentration (MBC) and minimum fungicidal concentration (MFC) determination. The MIC was determined by the micro broth dilution method in 96-well plates. Serial two-fold dilutions of tetrasodium EDTA (from 2% to 0.015%), ethanol (from 50% to 0.1%) and chlorhexidine HCl (from 100 μg/mL to 0.025 μg/mL) were prepared in MH broth with a final volume of 90 μL per well. A 10 μL containing 1×10^5 bacterial cells or 2×10^3 fungal cells were added to each well. The inoculated plates were covered with a lid, sealed with Parafilm, and incubated for 24 h at 37° C. with slight rocking on a tilting platform shaker. After incubation, the optical density at 600 nm (OD 600) of the cultures in each well was measured using an xMark™ Microplate Absorbance Spectrophotometer (Bio-Rad). […] MBCs and MFCs were determined by transferring 100 μL from each well with no apparent growth onto appropriate agar plates, followed by incubation for 24 h at 37° C.
(§2) A fourth composition and solution included tetrasodium EDTA with ethanol or chlorhexidine HCl. This fourth composition and solution were created using checkerboard titration methods using micro broth dilution in 96-well microtiter plates. The concentrations of antimicrobials used were based on previously determined MIC values. Briefly, 200 μL of two-fold dilutions of tetrasodium EDTA and ethanol or chlorhexidine HCl were prepared in MH or MH II broth with standardized cell suspension. […] Microtiter plates were incubated at 37° C. for 24 h, and the results were analyzed. Each test was performed in duplicate and included a growth control without adding any antimicrobials.

Serratia marcescens SK2 [2] = assay: Checkerboard, FMCI; assay type: cell-based; conditions: S. marcescens SK2
Experimental: as §1, §2

[3] = tested on: Staphylococcus epidermidis ON170; assay: Checkerboard, FMCI; assay type: cell-based; conditions: S. epidermidis ON170
Experimental: as §1, §2

[4] = tested on: Stenotrophomonas maltophilia ON17; assay: Checkerboard, FMCI; assay type: cell-based; conditions: S. maltophilia ON17; EDTA + chlorhexidine HCl
Experimental: as §1, §2

[5] = tested on: Pseudomonas aeruginosa SK1; assay: Checkerboard, FMCI; assay type: cell-based; conditions: P. aeruginosa SK1
Experimental: as §1, §2

Proteus mirabilis ON153 = assay: Checkerboard, FMCI; assay type: cell-based; conditions: P. mirabilis ON153
Experimental: as §1, §2

E. coli SK2 [6] = assay: Checkerboard, FMCI; assay type: cell-based, Escherichia coli; conditions: EDTA + chlorhexidine HCl
Experimental: as §1
A fourth composition and solution included tetrasodium EDTA with ethanol or chlorhexidine HCl. […] The concentrations of antimicrobials used were based on previously determined MIC values. […] Microtiter plates were incubated at 37° C. for 24 h, and the results were analyzed. […]

[7] = tested on: 48-h old biofilms of bacterial and fungal test organisms; assay: Rapid biofilm eradication, 2-h exposure; assay type: cell-based; conditions: each agent alone at its MBEC
Experimental: Determining rapid biofilm eradication by tetrasodium EDTA, ethanol, and chlorhexidine HCl alone and in combination was performed. After biofilm formation, control pegs (n=6) were removed and analyzed to determine the starting biofilm cell numbers via the drop dilution method. The 48-h old biofilms on the pegs were exposed to different concentrations of test antimicrobials, dissolved in an appropriate growth medium, for two h to evaluate their efficacy alone and in combination. […] Following treatment, pegs were washed twice with sterile PBS, and the biofilm cells were dislodged into recovery medium and enumerated as described above.
The method for rapid biofilm eradication ability of test antimicrobials alone and in combination against 48-h-old biofilms within two h exposure time included (1) choosing different concentrations of test antimicrobials to assess their potency in eradicating preformed biofilms of study organisms within two h. Then (2) the quantitative recovery from biofilms following exposure to the antimicrobial solutions for bacterial strains (FIGS. 4A-4C) and fungal strains (FIG. 5) was evaluated.

C. albicans ON47 [8] = assay: Checkerboard FBEC index, 48-h biofilm; assay type: cell-based, Candida albicans; conditions: EDTA + chlorhexidine HCl
MRSA ON184 [9] = assay: MBC/MFC determination; assay type: cell-based, Staphylococcus aureus; conditions: agent alone
Experimental: as §1

C. albicans ON47 [10] = assay: MBEC assay, 48-h biofilm; assay type: cell-based, Candida albicans; conditions: C. albicans ON47 48-h biofilm; 24 h exposure
Experimental: A biofilm cultivation cell composition was provided. This fifth composition was created using an MBEC Assay® biofilm inoculator, consisting of a polystyrene lid with 96 downward-protruding pegs and a corresponding base used to grow biofilms. A standardized inoculum was diluted in an appropriate biofilm growth medium to achieve a viable cell count of 1.5×10^6 CFU/mL of bacterial cells or 5×10^5 CFU/mL of fungal cells. Then, 150 μL of this inoculum was transferred into each appropriate well, and the peg lids were inserted into the microtiter plates. The plates were sealed with Parafilm and were incubated at optimum temperature for 48 h with slight rocking for bacteria and shaking at 200 rpm for fungal strains. After incubation, the peg lid was removed from the base and rinsed twice with sterile phosphate-buffered saline (PBS) for 2 min to remove loosely attached non-sessile cells. Before the antimicrobial challenge, the pegs in column 1 (n=8) were considered the biofilm growth control; these pegs were removed from the lids, placed into 200 μL of recovery medium, and analyzed for starting biofilm cell numbers as described below. […] MBEC values were determined as the minimum concentration of antimicrobials that yielded a viable cell count at or lower than the 125 CFU/mL detection limit.

MRSA ON184 [11] = assay: MIC, micro broth dilution; assay type: cell-based, Staphylococcus aureus; conditions: agent alone
Experimental: as §1

E. coli SK2 [12] = assay: MIC, micro broth dilution; assay type: cell-based, Escherichia coli; conditions: agent alone
Experimental: as §1

E. coli SK2 [13] = assay: MBC/MFC determination; assay type: cell-based, Escherichia coli; conditions: agent alone
Experimental: as §1

Serratia marcescens SK2 [14] = assay: MIC, micro broth dilution; assay type: cell-based; conditions: S. marcescens SK2; agent alone
Experimental: as §1

[15] = tested on: Staphylococcus epidermidis ON170; assay: MIC, micro broth dilution; assay type: cell-based; conditions: S. epidermidis ON170; agent alone
Experimental: as §1

C. albicans ON47 [16] = assay: MBC/MFC determination; assay type: cell-based, Candida albicans; conditions: agent alone
Experimental: as §1

For `[H]/N=C(\N/C(=N/[H])NCCCCCCNC(=N)NC(=N)Nc1ccc(Cl)cc1)Nc1ccc(Cl)cc1` [Chlorhexidine HCl, chlorhexidine HCl, reference compound], the “Microbicidal concentration in combination” value (“Microbicidal concentration” for short) ([1]; EDTA + chlorhexidine HCl) was 0.2 µg/mL, the “Microbicidal concentration” value (Serratia marcescens SK2 [2]; EDTA + chlorhexidine HCl) was 1.6 µg/mL and the “Microbicidal concentration” value ([3]; EDTA + chlorhexidine HCl) was 0.4 µg/mL. For the same compound, the “Microbicidal concentration” value [4] was 0.4 µg/mL, the “Microbicidal concentration” value ([5]; EDTA + chlorhexidine HCl) was 1.6 µg/mL and the “Microbicidal concentration” value (Proteus mirabilis ON153; EDTA + chlorhexidine HCl) was 1.6 µg/mL. For the same compound, the “Microbicidal concentration” value (E. coli SK2 [6]) was 0.2 µg/mL and the “Eradication of preformed biofilms after 2 h of exposure” value [7] was “failed to eradicate”.
For `O=C([O-])CN(CCN(CC(=O)[O-])CC(=O)[O-])CC(=O)[O-].[Na+].[Na+].[Na+].[Na+]` [EDTA, tetrasodium EDTA], the “Microbicidal concentration” value ([1]; EDTA + chlorhexidine HCl) was 0.008 % w/v, the “Microbicidal concentration” value ([1]; EDTA + ethanol) was 0.25 % w/v and the “Microbicidal concentration” value (Serratia marcescens SK2 [2]; EDTA + ethanol) was 0.25 % w/v. The “Microbicidal concentration” value ([3]; EDTA + chlorhexidine HCl) was 0.25 % w/v, the “Microbicidal concentration” value ([3]; EDTA + ethanol) was 0.031 % w/v and the “Microbicidal concentration” value [4] was 0.031 % w/v. For the same compound, the “Microbicidal concentration” value ([5]; EDTA + chlorhexidine HCl) was 0.031 % w/v, the “Microbicidal concentration” value ([5]; EDTA + ethanol) was 0.031 % w/v and the “Microbicidal concentration” value (Proteus mirabilis ON153; EDTA + ethanol) was 0.063 % w/v. The “Microbicidal concentration” value (E. coli SK2 [6]) was 0.015 % w/v, the “Biofilm eradication concentration in combination (FBEC)” value (C. albicans ON47 [8]) was 0.031 % w/v and the “Eradication of preformed biofilms after 2 h of exposure” value [7] was “failed to eradicate”. The MBC/MFC (MRSA ON184 [9]) was 2 % w/v, the MBEC (C. albicans ON47 [10]) was 1 % w/v and the MIC (MRSA ON184 [11]) was 0.063 % w/v. It also gave an MIC (E. coli SK2 [12]) of 0.5 % w/v, an MBC/MFC (E. coli SK2 [13]) of 0.5 % w/v and an MIC (Serratia marcescens SK2 [14]) of 2 % w/v. It also gave an MIC [15] of 0.063 % w/v and an MBC/MFC (C. albicans ON47 [16]) of 1 % w/v.
